Laboratory results published in the NIST ThermoML archive (doi:10.1016/j.tca.2013.01.028).
Numbers after ± are expanded uncertainties.

Assay: excess molar enthalpy (molar enthalpy of mixing); xn = mol fraction of the nth substance listed
Settings: 303.15 K, 101 kPa, Liquid, Calvet calorimetry

`c1ccccc1` [benzene] + CCCCCCC showed an excess molar enthalpy (x1 = 0.2481) of 0.605 ± 0.007 kJ/mol, an excess molar enthalpy (x1 = 0.5) of 0.923 ± 0.01 kJ/mol and an excess molar enthalpy (x1 = 0.7576) of 0.777 ± 0.0088 kJ/mol.
Work on `c1ccccc1` [benzene] + Cc1ccccc1 yielded an excess molar enthalpy (x2 = 0.247) of 0.0543 ± 0.0015 kJ/mol, an excess molar enthalpy (x2 = 0.4944) of 0.0713 ± 0.0017 kJ/mol and an excess molar enthalpy (x2 = 0.7685) of 0.0477 ± 0.0015 kJ/mol.
